Source: ChEMBL document CHEMBL1201861, “Genomics of Drug Sensitity in Cancer screening data, Wellcome Trust Sanger Institute”
pIC50: −log10 of the molar value.

What was measured:
Experiment in all cases: cells
CP66-MEL = format: functional, cell-based; settings: Homo sapiens;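 also: growth inhibition of CP66-MEL cells determined in a cell viability assay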
Description: SANGER: Inhibition of human CP66-MEL cell growth in a cell viability assay.

CaR-1 = format: functional, cell-based; settings: Homo sapiens;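 also: growth inhibition of human CaR-1 cancer cells, read out with a cell viability assay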
Description: SANGER: Inhibition of human CaR-1 cell growth in a cell viability assay.

DMS-79 = format: functional, cell-based, Homo sapiens; settings: Homo sapiens, DMS-79;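 also: growth inhibition measured with a cell viability assay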
Description: SANGER: Inhibition of human DMS-79 cell growth in a cell viability assay.

DU-145 = format: functional, cell-based; settings: Homo sapiens
Description: SANGER: Inhibition of human DU-145 cell growth in a cell viability assay.

Daoy = format: functional, cell-based; settings: Homo sapiens;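 also: daoy cell growth inhibition, read out as cell viability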
Description: SANGER: Inhibition of human Daoy cell growth in a cell viability assay.

GP5d = format: functional, cell-based; settings: Homo sapiens;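 also: growth inhibition of human GP5d cells, read out with a cell viability assay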
Description: SANGER: Inhibition of human GP5d cell growth in a cell viability assay.

HCC1569 = format: functional, cell-based; settings: Homo sapiens;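 also: growth inhibition of human HCC1569 cells, read out with a cell viability assay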
Description: SANGER: Inhibition of human HCC1569 cell growth in a cell viability assay.

HCC 2998 = format: functional, cell-based; settings: Homo sapiens;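 also: growth inhibition of human HCC2998 cells, measured with a cell viability read-out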
Description: SANGER: Inhibition of human HCC2998 cell growth in a cell viability assay.

HCC70 = format: functional, cell-based; settings: Homo sapiens;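 also: cell viability assay measuring how strongly the compound suppresses proliferation of HCC70 cells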
Description: SANGER: Inhibition of human HCC70 cell growth in a cell viability assay.

HO-1-N-1 = format: functional, cell-based; settings: Homo sapiens;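 also: growth inhibition of human HO-1-N-1 cells, read out with a cell viability assay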
Description: SANGER: Inhibition of human HO-1-N-1 cell growth in a cell viability assay.

HOP-92 = format: functional, cell-based; settings: Homo sapiens;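 also: cell viability readout, with IC50 reflecting inhibition of HOP-92 cell growth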
Description: SANGER: Inhibition of human HOP-92 cell growth in a cell viability assay.

HuTu80 = format: functional, cell-based, Homo sapiens, HUTU-80; settings: Homo sapiens, HuTu80;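 also: growth inhibition of HuTu80 human cells, determined with a cell viability readout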
Description: SANGER: Inhibition of human HUTU-80 cell growth in a cell viability assay.

HuP-T3 = format: functional, cell-based; settings: Homo sapiens;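 also: HuP-T3 cell growth inhibition, read out with a cell viability assay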
Description: SANGER: Inhibition of human HuP-T3 cell growth in a cell viability assay.

J82 = format: functional, cell-based; settings: Homo sapiens;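 also: growth inhibition of J82 cells, read out with a cell viability assay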
Description: SANGER: Inhibition of human J82 cell growth in a cell viability assay.

KYSE-520 cell line = format: functional, cell-based; settings: Homo sapiens;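 also: growth inhibition of human KYSE-520 cells, read out with a viability assay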
Description: SANGER: Inhibition of human KYSE-520 cell growth in a cell viability assay.

LK-2 = format: functional, cell-based; settings: Homo sapiens;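 also: growth inhibition of LK-2 cells, read out with a viability assay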
Description: SANGER: Inhibition of human LK-2 cell growth in a cell viability assay.

MFE-280 = format: functional, cell-based; settings: Homo sapiens;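 also: growth inhibition of MFE-280 cells, determined with a cell viability readout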
Description: SANGER: Inhibition of human MFE-280 cell growth in a cell viability assay.

MKN-28 = format: functional, cell-based; settings: Homo sapiens;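 also: cell viability assay read-out, IC50 reflects suppression of growth of human MKN-28 cells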
Description: SANGER: Inhibition of human MKN28 cell growth in a cell viability assay.

NB14 = format: functional, cell-based, Homo sapiens; settings: Homo sapiens, NB14;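 also: growth inhibition of NB14 cells measured with a cell viability assay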
Description: SANGER: Inhibition of human NB14 cell growth in a cell viability assay.

NB7 = format: functional, cell-based, Homo sapiens; settings: Homo sapiens, NB7;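 also: growth inhibition of NB7 cells, read out with a cell viability assay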
Description: SANGER: Inhibition of human NB7 cell growth in a cell viability assay.

NCI-H2009 = format: functional, cell-based; settings: Homo sapiens;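 also: cell viability assay measuring inhibition of NCI-H2009 cell growth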
Description: SANGER: Inhibition of human NCI-H2009 cell growth in a cell viability assay.

NCI-H292 = format: functional, cell-based; settings: Homo sapiens;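 also: growth inhibition of NCI-H292 cells, read out with a cell viability assay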
Description: SANGER: Inhibition of human NCI-H292 cell growth in a cell viability assay.

NCI-H441 = format: functional, cell-based; settings: Homo sapiens;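 also: growth inhibition of NCI-H441 cells, read out with a cell viability assay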
Description: SANGER: Inhibition of human NCI-H441 cell growth in a cell viability assay.

NCI-H520 = format: functional, cell-based; settings: Homo sapiens;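 also: growth inhibition of NCI-H520 cells, measured by a cell viability assay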
Description: SANGER: Inhibition of human NCI-H520 cell growth in a cell viability assay.

NCI-H630 = format: functional, cell-based; settings: Homo sapiens;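 also: growth inhibition of NCI-H630 cells, read out with a cell viability assay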
Description: SANGER: Inhibition of human NCI-H630 cell growth in a cell viability assay.

NCI-H650 = format: functional, cell-based; settings: Homo sapiens;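 also: growth inhibition of NCI-H650 cells, read out by a viability assay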
Description: SANGER: Inhibition of human NCI-H650 cell growth in a cell viability assay.

OE33 = format: functional, cell-based; settings: Homo sapiens;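 also: growth inhibition of human OE33 cells, measured by a cell viability assay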
Description: SANGER: Inhibition of human OE33 cell growth in a cell viability assay.

OVCAR-5 = format: functional, cell-based; settings: Homo sapiens;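 also: growth inhibition of human OVCAR-5 cells, read out with a cell viability assay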
Description: SANGER: Inhibition of human OVCAR-5 cell growth in a cell viability assay.

PANC-08-13 = format: functional, cell-based; settings: Homo sapiens;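 also: cell growth inhibition, measured with a cell viability assay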
Description: SANGER: Inhibition of human PANC-08-13 cell growth in a cell viability assay.

RCM-1 = format: functional, cell-based; settings: Homo sapiens;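 also: growth inhibition of the RCM-1 line, determined with a cell viability readout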
Description: SANGER: Inhibition of human RCM-1 cell growth in a cell viability assay.

RPMI-7951 = format: functional, cell-based; settings: Homo sapiens
Description: SANGER: Inhibition of human RPMI-7951 cell growth in a cell viability assay.

SAS = format: functional, cell-based; settings: Homo sapiens;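 also: growth inhibition of SAS cells, read out with a cell viability assay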
Description: SANGER: Inhibition of human SAS cell growth in a cell viability assay.

SF-295 = format: functional, cell-based; settings: Homo sapiens;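 also: growth inhibition of SF-295 cells, read out with a cell viability assay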
Description: SANGER: Inhibition of human SF295 cell growth in a cell viability assay.

SW-620 = format: functional, cell-based; settings: Homo sapiens;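 also: growth inhibition of human SW-620 cells, measured by a cell viability assay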
Description: SANGER: Inhibition of human SW620 cell growth in a cell viability assay.

SW780 = format: functional, cell-based; settings: Homo sapiens;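 also: growth inhibition of the cells, read out with a cell viability assay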
Description: SANGER: Inhibition of human SW780 cell growth in a cell viability assay.

SW837 = format: functional, cell-based; settings: Homo sapiens;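 also: growth inhibition of SW837 cells, determined with a cell viability assay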
Description: SANGER: Inhibition of human SW837 cell growth in a cell viability assay.

T47D = format: functional, cell-based; settings: Homo sapiens;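 also: growth inhibition of human T47D cells, measured with a cell viability assay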
Description: SANGER: Inhibition of human T47D cell growth in a cell viability assay.

647-V = format: functional, cell-based; settings: Homo sapiens;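 also: growth inhibition of 647-V cells, read out with a cell viability assay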
Description: SANGER: Inhibition of human 647-V cell growth in a cell viability assay.

A-375 = format: functional, cell-based; settings: Homo sapiens;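 also: growth inhibition of A375 cells, read out with a cell viability assay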
Description: SANGER: Inhibition of human A375 cell growth in a cell viability assay.

BHY = format: functional, cell-based; settings: Homo sapiens;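 also: cell growth inhibition read out by a viability assay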
Description: SANGER: Inhibition of human BHY cell growth in a cell viability assay.

C32 = format: functional, cell-based; settings: Homo sapiens;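 also: cell viability assay, with IC50 reflecting inhibition of C32 cell growth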
Description: SANGER: Inhibition of human C32 cell growth in a cell viability assay.

CAL-51 = format: functional, cell-based; settings: Homo sapiens;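 also: human CAL-51 cell line, growth inhibition read out via a cell viability assay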
Description: SANGER: Inhibition of human CAL-51 cell growth in a cell viability assay.

CAL-54 = format: functional, cell-based; settings: Homo sapiens;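 also: growth inhibition of CAL-54 cells, read out by a viability measurement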
Description: SANGER: Inhibition of human CAL-54 cell growth in a cell viability assay.

CAL-72 = format: functional, cell-based; settings: Homo sapiens;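 also: cell viability assay measuring inhibition of proliferation in the CAL-72 cell line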
Description: SANGER: Inhibition of human CAL-72 cell growth in a cell viability assay.

TYK-nu = format: functional, cell-based; settings: Homo sapiens;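 also: growth inhibition of human TYK-nu cells, read out by a cell viability assay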
Description: SANGER: Inhibition of human TYK-nu cell growth in a cell viability assay.

VM-CUB-1 = format: functional, cell-based; settings: Homo sapiens;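 also: cell viability assay measuring growth inhibition of the human VM-CUB-1 cell line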
Description: SANGER: Inhibition of human VM-CUB-1 cell growth in a cell viability assay.

VMRC-RCZ = format: functional, cell-based; settings: Homo sapiens;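 also: growth inhibition measured with a cell viability assay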
Description: SANGER: Inhibition of human VMRC-RCZ cell growth in a cell viability assay.

Which results are given for `NC(=O)c1ccc(N(C(N)=O)c2c(F)cccc2F)nc1-c1ccc(F)cc1F` [VX-702]?
pIC50 (CP66-MEL): < 5.70; pIC50 (CaR-1): < 5.70; pIC50 (DMS-79): < 5.70; pIC50 (DU-145): 6.84; pIC50 (Daoy): < 5.70; pIC50 (GP5d): < 5.70; pIC50 (HCC1569): < 5.70; pIC50 (HCC 2998): < 5.70; pIC50 (HCC70): < 5.70; pIC50 (HO-1-N-1): < 5.70; pIC50 (HOP-92): < 5.70; pIC50 (HuTu80): < 5.70; pIC50 (HuP-T3): < 5.70; pIC50 (J82): < 5.70; pIC50 (KYSE-520 cell line): < 5.70; pIC50 (LK-2): < 5.70; pIC50 (MFE-280): < 5.70; pIC50 (MKN-28): < 5.70; pIC50 (NB14): < 5.70; pIC50 (NB7): < 5.70; pIC50 (NCI-H2009): < 5.70; pIC50 (NCI-H292): < 5.70; pIC50 (NCI-H441): < 5.70; pIC50 (NCI-H520): < 5.70; pIC50 (NCI-H630): < 5.70; pIC50 (NCI-H650): < 5.70; pIC50 (OE33): < 5.70; pIC50 (OVCAR-5): < 5.70; pIC50 (PANC-08-13): < 5.70; pIC50 (RCM-1): < 5.70; pIC50 (RPMI-7951): < 5.70; pIC50 (SAS): < 5.70; pIC50 (SF-295): < 5.70; pIC50 (SW-620): < 5.70; pIC50 (SW780): < 5.70; pIC50 (SW837): < 5.70; pIC50 (T47D): < 5.70; pIC50 (647-V): < 5.70; pIC50 (A-375): < 5.70; pIC50 (BHY): < 5.70; pIC50 (C32): < 5.70; pIC50 (CAL-51): < 5.70; pIC50 (CAL-54): < 5.70; pIC50 (CAL-72): < 5.70; pIC50 (TYK-nu): < 5.70; pIC50 (VM-CUB-1): < 5.70; pIC50 (VMRC-RCZ): < 5.70

Which results are given for `NC(=O)Nc1cc(-c2cccc(F)c2)sc1C(=O)N[C@H]1CCCNC1` [AZD-7762]?
pIC50 (CP66-MEL): < 5.70; pIC50 (CaR-1): 5.73; pIC50 (DMS-79): < 5.70; pIC50 (DU-145): < 5.70; pIC50 (Daoy): 6.35; pIC50 (GP5d): 6.38; pIC50 (HCC1569): < 5.70; pIC50 (HCC 2998): 6.50; pIC50 (HCC70): 6.51; pIC50 (HO-1-N-1): 5.94; pIC50 (HOP-92): 6.53; pIC50 (HuTu80): < 5.70; pIC50 (HuP-T3): 7.06; pIC50 (J82): 6.09; pIC50 (KYSE-520 cell line): 6.08; pIC50 (LK-2): 5.83; pIC50 (MFE-280): < 5.70; pIC50 (MKN-28): < 5.70; pIC50 (NB14): 7.21; pIC50 (NB7): < 5.70; pIC50 (NCI-H2009): < 5.70; pIC50 (NCI-H292): 6.05; pIC50 (NCI-H441): < 5.70; pIC50 (NCI-H520): 5.86; pIC50 (NCI-H630): 5.75; pIC50 (NCI-H650): 5.85; pIC50 (OE33): 6.41; pIC50 (OVCAR-5): 6.86; pIC50 (PANC-08-13): 6.18; pIC50 (RCM-1): 6.00; pIC50 (RPMI-7951): 6.64; pIC50 (SAS): 5.90; pIC50 (SF-295): 6.53; pIC50 (SW-620): 6.18; pIC50 (SW780): 5.92; pIC50 (SW837): < 5.70; pIC50 (T47D): < 5.70; pIC50 (647-V): 6.21; pIC50 (A-375): 6.30; pIC50 (BHY): 6.16; pIC50 (C32): 6.46; pIC50 (CAL-51): 6.29; pIC50 (CAL-54): 6.13; pIC50 (CAL-72): < 5.70; pIC50 (TYK-nu): 6.55; pIC50 (VM-CUB-1): 6.21; pIC50 (VMRC-RCZ): 6.04
